The subject of one test is A549. The experiment in a line: Cytotoxicity against human A549 cells after 72 hrs by MTT assay. It counts as functional, cell-based. Particulars: A549, 72 h. On the technique in general: Tetrazolium dyes change colour on reduction, which living cells bring about.
The next test deals with SGC-7901. The experiment in a line: Cytotoxicity against human SGC7901 cells after 72 hrs by MTT assay. It counts as functional, cell-based. Particulars: SGC-7901, 72 h.
The subject of test [1] is HepG2. Briefly: cells. The note with it: Homo sapiens, HepG2, 72 h.
Description: (§1) Cytotoxicity against human HepG2 cells after 72 hrs by MTT assay
The test system of another test is SH-SY5Y. Briefly: Cytotoxicity against human SH-SY5Y cells after 72 hrs by MTT assay. It counts as functional, cell-based.
A further test has as its system DU-145. Briefly: Cytotoxicity against human DU145 cells after 72 hrs by MTT assay. It counts as functional, cell-based. Particulars: DU-145, 72 h.
Another test has as its system L929. Briefly: Cytotoxicity against mouse L929 cells after 72 hrs by MTT assay. It counts as cell-based. Particulars: L929, 72 h.
Another test deals with Vero. The experiment in a line: Cytotoxicity against african green monkey Vero cells after 72 hrs by MTT assay. It counts as cell-based. The note with it: Chlorocebus sabaeus.
Another test concerns HeLa. The experiment in a line: cells. The note with it: Homo sapiens, 72 h.
Test [2] relates to HepG2. Briefly: Inhibition of DNA topoisomerase 2alpha protein expression in human HepG2 cells at 0.5 to 1 uM after 48 hrs by Western blot analysis. It counts as functional, cell-based. In general terms: A western blot detects proteins with antibodies after separation by electrophoresis.
Test [3] deals with HepG2. Briefly: Induction of apoptosis in human HepG2 cells assessed as late apoptotic to necrotic cells at 0.25 uM after 48 hrs by annexinV/propidium iodide staining-based flow cytometric analysis (reference value: 1.61%). The class given is functional. Background: Flow cytometry measures light scatter and fluorescence of single cells or particles in a stream.
Test [4] relates to HepG2. The experiment in a line: Induction of apoptosis in human HepG2 cells assessed as […] of nuclear fragment at 0.25 to 2 uM after 48 hrs by Hoechst staining-based microscopic analysis. The class given is functional, cell-based.
In test [5] the test system is HepG2. Briefly: Induction of apoptosis in human HepG2 cells assessed as early apoptotic cells at 0.25 uM after 48 hrs by annexinV/propidium iodide staining-based flow cytometric analysis (reference value: 0.47%). The class given is functional.
Test [6] concerns HepG2. The note with it: Homo sapiens.
Description: as §1
The test system of test [7] is HepG2. The experiment in a line: Induction of apoptosis in human HepG2 cells assessed as late apoptotic to necrotic cells at 2 uM after 48 hrs by annexinV/propidium iodide staining-based flow cytometric analysis (reference value: 1.61%). It counts as functional.
The test system of test [8] is HepG2. The experiment in a line: Cell cycle arrest in human HepG2 cells assessed as accumulation at subG1 after 48 hrs by propidium iodide staining-based flow cytometric analysis. The class given is functional.
Test [9] concerns HepG2. The experiment in a line: Induction of apoptosis in human HepG2 cells assessed as late apoptotic to necrotic cells at 0.5 uM after 48 hrs by annexinV/propidium iodide staining-based flow cytometric analysis (reference value: 1.61%). The class given is functional.
The test system of test [10] is HepG2. The experiment in a line: Cell cycle arrest in human HepG2 cells assessed as accumulation at S phase after 48 hrs by propidium iodide staining-based flow cytometric analysis. The class given is functional.
Test [11] deals with HepG2. Briefly: Induction of apoptosis in human HepG2 cells assessed as appearance of apoptotic bodies at 0.25 to 2 uM after 48 hrs by Hoechst staining-based microscopic analysis. It counts as functional, cell-based.
The subject of test [12] is HepG2. Briefly: Cytotoxicity against human HepG2 cells by MTT assay. It counts as functional, cell-based. Particulars: TDE = time-dependent effect.
Test [13] deals with HepG2. Briefly: Induction of apoptosis in human HepG2 cells assessed as early apoptotic cells at 0.5 uM after 48 hrs by annexinV/propidium iodide staining-based flow cytometric analysis (reference value: 0.47%). The class given is functional.
Test [14] relates to HepG2. The experiment in a line: Inhibition of DNA topoisomerase 2beta mRNA expression in human HepG2 cells at 0.5 to 8 uM after 6 hrs by RT-PCR analysis. It counts as functional, cell-based.
The subject of test [15] is HepG2. The experiment in a line: Induction of apoptosis in human HepG2 cells assessed as late apoptotic to necrotic cells at 1 uM after 48 hrs by annexinV/propidium iodide staining-based flow cytometric analysis (reference value: 1.61%). The class given is functional.
In test [16] the test system is HepG2. Briefly: Induction of apoptosis in human HepG2 cells assessed as early apoptotic cells at 1 uM after 48 hrs by annexinV/propidium iodide staining-based flow cytometric analysis (reference value: 0.47%). The class given is functional.
The test system of test [17] is HepG2. Briefly: Induction of apoptosis in human HepG2 cells assessed as early apoptotic cells at 2 uM after 48 hrs by annexinV/propidium iodide staining-based flow cytometric analysis (reference value: 0.47%). It counts as functional.

The source made the active and inactive calls. No cut-off for these calls is given here.

Broadly, the IC50 is the concentration needed to halve the response being measured.

Description for HeLa: Cytotoxicity against human HeLa cells after 72 hrs by MTT assay

On to `COc1ccc(-c2nnc(N[C@@H]3c4cc5c(cc4[C@@H](c4cc(OC)c(OC)c(OC)c4)[C@H]4C(=O)OC[C@@H]43)OCO5)o2)cc1`, for which the IC50 with A549 was 53.7 µM; in the test on SGC-7901 (read-out: IC50) it was > 100 µM; in the test with HepG2 [1] it was 27.9 µM; in the test with SH-SY5Y, 7.39 µM; with DU-145 it was 76.1 µM; with L929 it was 18.2 µM. Also, the IC50 is 7.43 µM in the test on Vero and 17.7 µM with HeLa.

Turning to `COc1cc([C@@H]2c3cc4c(cc3[C@@H](Nc3nnc(-c5ccc([N+](=O)[O-])cc5)o3)[C@H]3COC(=O)[C@H]23)OCO4)cc(OC)c1OC`, the IC50 in the test on SGC-7901 (read-out: IC50) is > 100 µM; in the test on HepG2 [1], > 100 µM; in the test with SH-SY5Y, 16.6 µM; in the test with DU-145, > 100 µM; with L929 it was > 100 µM; in the test with HeLa, > 100 µM.

Regarding `COc1cc([C@@H]2c3cc4c(cc3[C@@H](Nc3nnc(-c5ccccc5)o3)[C@H]3COC(=O)[C@H]23)OCO4)cc(OC)c1OC`, the IC50 is > 100 µM with SGC-7901 (read-out: IC50); 74.2 µM in the test on HepG2 [1]; 26.9 µM in the test with SH-SY5Y; > 100 µM with DU-145; > 100 µM with L929; > 100 µM in the test with Vero. This compound also registered an IC50 in the test with HeLa of 85.3 µM.

`COc1cc([C@@H]2c3cc4c(cc3[C@@H](Nc3nnc(-c5cccnc5)o3)[C@H]3COC(=O)[C@H]23)OCO4)cc(OC)c1OC`: the IC50 was > 100 µM with A549; > 100 µM in the test on SGC-7901 (read-out: IC50); 72.8 µM with HepG2 [1]; 22.5 µM in the test on SH-SY5Y; > 100 µM with DU-145; 54.6 µM in the test on L929. In addition, the IC50 with Vero and with HeLa was > 100 µM throughout.

Take `COc1cc([C@@H]2c3cc4c(cc3[C@@H](Nc3nnc(-c5ccncc5)o3)[C@H]3COC(=O)[C@H]23)OCO4)cc(OC)c1OC`: the IC50 with A549 is > 100 µM; with SGC-7901 (read-out: IC50), > 100 µM; in the test on HepG2 [1] it was 96.6 µM; in the test on SH-SY5Y it was 41.5 µM; in the test with DU-145 it was > 100 µM; in the test on L929 it was 20.5 µM. Moreover, the half-inhibitory concentration (IC50) in the test with Vero and with HeLa was > 100 µM throughout.

On to `O=c1[nH]cc(F)c(=O)[nH]1` [FLUOROURACIL], for which the IC50 in the test on SGC-7901 was 14.5 µM; with HepG2 [1] it was 32.2 µM; with SH-SY5Y, 1.09 µM; in the test with DU-145 it was 12.3 µM; with L929, 1.38 µM; in the test on Vero, > 100 µM. In the test on HeLa, half-maximal inhibition (IC50) was put at 16 µM.

On to `COc1cc([C@@H]2c3cc4c(cc3[C@@H](Nc3nnc(-c5cccs5)o3)[C@H]3COC(=O)[C@H]23)OCO4)cc(OC)c1OC`, for which the IC50 was > 100 µM in the test on A549; 56.6 µM with SGC-7901 (read-out: IC50); 38.8 µM with HepG2 [1]; 20 µM in the test on SH-SY5Y; > 100 µM in the test with DU-145; 70.9 µM in the test with L929. For the same compound, the IC50 in the test on Vero is > 100 µM; with HeLa it was 42.5 µM.

Turning to `COc1cc([C@@H]2c3cc4c(cc3[C@@H](Nc3nnc(C)o3)[C@H]3COC(=O)[C@H]23)OCO4)cc(OC)c1O`, the IC50 in the test with A549 is > 100 µM; with SGC-7901 (read-out: IC50) it was 9.76 µM; in the test on HepG2 [1], 17.9 µM; in the test with SH-SY5Y, 4.61 µM; with DU-145 it was 60.6 µM; with L929, 4.82 µM. The IC50 in the test with Vero stood at 46.1 µM; in the test with HeLa, 18.8 µM.

`COc1cc([C@@H]2c3cc4c(cc3[C@@H](O[C@@H]3O[C@@H]5CO[C@@H](C)O[C@H]5[C@H](O)[C@H]3O)[C@H]3COC(=O)[C@H]23)OCO4)cc(OC)c1O` [ETOPOSIDE]: the IC50 with A549 worked out at 10.1 µM; with SGC-7901 (read-out: IC50), 12.1 µM; with HepG2 [1] it was 5.48 µM; in the test with SH-SY5Y, 5.37 µM; in the test with DU-145, 64.3 µM; in the test with L929, 1 µM. Moreover, the IC50 in the test with Vero is 31.1 µM; in the test with HeLa it was 96.3 µM.

Take `COc1cc([C@@H]2c3cc4c(cc3[C@H](O)[C@H]3COC(=O)[C@H]23)OCO4)cc(OC)c1OC` [PODOFILOX]: the half-inhibitory concentration (IC50) in the test with A549 was 13.6 µM; with SGC-7901 (read-out: IC50) it was 2.95 µM; with HepG2 [1] it was 2.27 µM; with SH-SY5Y it was 2.54 µM; in the test with DU-145 it was > 100 µM; in the test on L929, 1.37 µM. The IC50 is 1.78 µM in the test on Vero and 7.58 µM in the test on HeLa.

Consider `COc1cc([C@@H]2c3cc4c(cc3[C@@H](Nc3nnc(C)o3)[C@H]3COC(=O)[C@H]23)OCO4)cc(OC)c1OC`, for which the inhibition result in the test with HepG2 [2] and in the test on HepG2 [14] was “Active” in each case. The IC50 was > 100 µM with A549; 38.1 µM in the test with SGC-7901 (read-out: IC50); 1.51 µM with HepG2 [1]; 14.7 µM in the test on SH-SY5Y; > 100 µM in the test with DU-145; 19.6 µM in the test on L929. Also, the results for the IC50 with Vero and in the test with HeLa were 5.49 µM and 2.68 µM, respectively. For the same compound, the Activity in the test on HepG2 [3] was 1.31%; with HepG2 [5], 0.62%; in the test on HepG2 [7] it was 30.27%; in the test on HepG2 [8], “Dose-dependent effect”; in the test on HepG2 [9] it was 2.77%; in the test on HepG2 [10], “Dose-dependent effect”. In addition, the Activity in the test with HepG2 [13] was 1.45%; in the test on HepG2 [15], 9.51%; in the test with HepG2 [16], 8.03%; in the test on HepG2 [17], 20.68%. Further, the result in the test with HepG2 [4] and with HepG2 [11] was Active. Further, the results for the inhibition result in the test with HepG2 [6] and in the test on HepG2 [12] were “Dose-dependent effect” and “tde”, respectively.

With `COc1cc([C@@H]2c3cc4c(cc3[C@@H](Nc3nnco3)[C@H]3COC(=O)[C@H]23)OCO4)cc(OC)c1OC`, the concentration for half-maximal inhibition (IC50) in the test with A549 was > 100 µM; with SGC-7901 (read-out: IC50) it was > 100 µM; with HepG2 [1], 11.8 µM; in the test with SH-SY5Y it was 25.8 µM; in the test on DU-145, 11.3 µM; in the test on L929, 43.3 µM. The IC50 with Vero was 15.4 µM; with HeLa, > 100 µM.

In the case of `COc1cc([C@@H]2c3cc4c(cc3[C@@H](Nc3nnc(-c5ccco5)o3)[C@H]3COC(=O)[C@H]23)OCO4)cc(OC)c1OC`, the IC50 with A549 was 69.2 µM; in the test with HepG2 [1], 38.8 µM; in the test with SH-SY5Y, 29.5 µM; in the test with DU-145, 35.4 µM; in the test with L929 it was > 100 µM; in the test on Vero it was > 100 µM. Moreover, the IC50 with HeLa amounted to 58.9 µM.

The record behind these values is ChEMBL document CHEMBL2046310, “Synthesis and biological evaluation of novel 4β-(1,3,4-oxadiazole-2-amino)-podophyllotoxin derivatives” (Bioorg Med Chem Lett, 2012).
